Where two headings read alike, the source gives them in different places.
Experiments:
[1] = target: T1, human adenosine A2A receptor (Homo sapiens, UniProt P29274); assay: Adenosine A2A receptor binding test (3H-CGS21680 binding); settings: compound at 100 nmol/L; Table 2, measured by Ricerca Biosciences, LLC; read-out: Inhibitory rate for human adenosine A2A receptor binding (3H-CGS21680 binding)
T1 construct: host or cells: HEK-293 cells (membranes)
Text: Specifically, for example, human recombinant receptors are expressed in HEK-293 cells.
The inhibitory rate can be calculated by the following equation.

[2] = target: T2, human adenosine A1 receptor (Homo sapiens, UniProt P30542); assay: Adenosine A1 receptor binding test (3H-DPCPX binding); settings: read-out: Inhibitory rate for human adenosine A1 receptor binding (3H-DPCPX binding)
T2 construct: host or cells: CHO cells (membranes)
T2 sequence (P30542 1-326): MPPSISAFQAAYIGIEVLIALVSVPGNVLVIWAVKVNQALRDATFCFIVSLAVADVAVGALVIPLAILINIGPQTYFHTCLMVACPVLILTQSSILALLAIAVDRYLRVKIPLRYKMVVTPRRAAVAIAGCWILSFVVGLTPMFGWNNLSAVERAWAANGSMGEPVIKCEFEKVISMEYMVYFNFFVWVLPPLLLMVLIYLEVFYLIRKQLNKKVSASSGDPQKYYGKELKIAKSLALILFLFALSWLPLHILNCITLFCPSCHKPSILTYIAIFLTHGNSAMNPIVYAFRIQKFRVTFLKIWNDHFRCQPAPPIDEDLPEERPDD
Text: Specifically, for example, human A1 receptor-expressing CHO cell membranes are used, and, as the labeled compound, for example, tritium-labeled DPCPX (1,3-dipropyl-8-cyclopentylxanthine) is used. The amount of non-specific binding can be determined by measuring the ^3H-DPCPX bound radioactivity in the presence of, for example, 100 μmol/L of R(−)-PIA((−)-N^6-2-phenylisopropyl adenosine).

[3] = test system: MPTP-treated common marmoset; assay: Test Example 3: combination with L-DOPA in MPTP-treated common marmoset, motor disability score; format: in vivo
Text: Parkinson's disease is a disease based on the progressive degeneration and loss of dopaminergic neuron in substantia nigra-striatum. In primates, a treatment with MPTP, which is a dopamine neurotoxin, causes selective degeneration and loss of dopaminergic neuron in substantia nigra-striatum and induces symptoms of akinesia, muscle rigidity and the like. The primates treated with MPTP are known as the model of Parkinson's disease [Proceedings of the National Academy of Science USA, vol. 80, p. 4546 (1983)]. In addition, common marmoset belongs to Haplorhini and is known to show the symptoms of Parkinson's disease by MPTP, like other Haplorhini [Neuroscience Letter, vol. 57, p. 37 (1985)]. […] The parkinsonian symptoms were judged using the index described in a previous report [Annales of Neurology, vol. 43, p. 507 (1998)]. All compounds were used as a suspension in 0.5% MC400, 10% aqueous sucrose solution. The subject animal was placed in an observation cage (with locomotor activity measuring apparatus) one day before the test compound administration for preconditioning to the environment. The symptoms of Parkinson's disease were continuously monitored through one-way mirror and disability score was scored each 10 min for 6 hr.
The locomotor activity was automatically measured using a computer by a measuring apparatus with a photocell.

[4] = test system: MPTP-treated common marmoset that developed motor complication; assay: Test Example 4: combination with L-DOPA in MPTP-treated common marmoset that developed motor complication; format: in vivo; settings: 1 mg/kg compound combined with L-DOPA 2.5 mg/kg, gavage
Method: 10 mg/kg of L-DOPA (containing 2.5 mg/kg of benserazide hydrochloride) was administered by gavage to common marmoset that developed chronic parkinsonian symptoms by treatment with MPTP by the method described in Test Example 3 (MPTP-treated marmoset) twice a day at about 6 hr intervals. L-DOPA was repeatedly administered for more than 3 weeks to induction of motor complication (dyskinesia symptom, wearing-off phenomenon, on-off fluctuation and the like) in MPTP-treated marmoset in addition to parkinsonian symptoms, and the marmoset was used for the test. […] The locomotor activity was automatically measured using a computer by a measuring apparatus with a photocell. […] The subject animal was placed in an observation cage (with locomotor activity measuring apparatus) one day before the test compound administration for preconditioning to the environment. The symptoms of Parkinson's disease were continuously monitored through one-way mirror and disability score was scored each 10 min for 6 hr.

[5] = compound at 100 nmol/L, Table 2, measured by Ricerca Biosciences, LLC

T1 sequence (P29274 whole entry): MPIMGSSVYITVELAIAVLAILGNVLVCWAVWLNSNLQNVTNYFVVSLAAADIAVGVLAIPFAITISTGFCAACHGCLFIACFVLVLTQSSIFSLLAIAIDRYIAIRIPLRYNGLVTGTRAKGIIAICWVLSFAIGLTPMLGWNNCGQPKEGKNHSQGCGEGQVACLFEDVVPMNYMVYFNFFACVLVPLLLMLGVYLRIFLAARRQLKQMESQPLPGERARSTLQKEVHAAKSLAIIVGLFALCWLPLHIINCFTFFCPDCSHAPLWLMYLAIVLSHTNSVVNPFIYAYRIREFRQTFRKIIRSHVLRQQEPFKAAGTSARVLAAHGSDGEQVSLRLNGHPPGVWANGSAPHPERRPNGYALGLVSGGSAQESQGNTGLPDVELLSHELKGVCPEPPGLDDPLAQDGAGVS

Compound	inhibition at 0.1 µM [1] [%]	inhibition at 0.1 µM [2, 5] [%]	other results
O=C(Nc1nc(-c2ccoc2)c(C(=O)C2CCOCC2)s1)c1cnc2c(c1)CCC2 [(IAA), N-[4-(3-Furyl)-5-(tetrahydropyran-4-carbonyl)thiazol-2-yl]-6,7-dihydro-5H-cyclopenta[b]pyridine-3-carboxamide]	98	9	
C=Cc1ccc(C(=O)Nc2nc(-c3ccco3)c(C(=O)C3CCOCC3)s2)cn1 [(IE), N-[4-(2-Furyl)-5-(tetrahydropyran-4-carbonyl)thiazol-2-yl]-6-vinylpyridine-3-carboxamide]	93	33	
O=C(Cc1cccnc1)Nc1nc(-c2ccco2)c(C(=O)C2CCOCC2)s1 [(IF), N-[4-(2-Furyl)-5-(tetrahydropyran-4-carbonyl)thiazol-2-yl]-2-(pyridin-3-yl)acetamide]	107	50	
O=C(Nc1nc(-c2ccco2)c(C(=O)C2CCOCC2)s1)c1ccc[nH]1 [(IG), N-[4-(2-Furyl)-5-(tetrahydropyran-4-carbonyl)thiazol-2-yl]-1H-pyrrole-2-carboxamide]	102	91	
O=C(Nc1nc(-c2ccco2)c(C(=O)C2CCOCC2)s1)c1cccc2[nH]ccc12 [(IH), N-[4-(2-Furyl)-5-(tetrahydropyran-4-carbonyl)thiazol-2-yl]-1H-indole-4-carboxamide]	98	67	
O=C(Nc1nc(-c2ccco2)c(C(=O)C2CCOCC2)s1)c1ccnc(CN2CCOCC2)c1 [(II), N-[4-(2-Furyl)-5-(tetrahydropyran-4-carbonyl)thiazol-2-yl]-2-(morpholin-4-ylmethyl)pyridine-4-carboxamide]	85	19	
COCc1cc(C(=O)Nc2nc(-c3ccco3)c(C(=O)C3CCOCC3)s2)ccn1 [(IJ), N-[4-(2-Furyl)-5-(tetrahydropyran-4-carbonyl)thiazol-2-yl]-2-methoxymethylpyridine-4-carboxamide]	93	21	
CCOCc1cc(C(=O)Nc2nc(-c3ccco3)c(C(=O)C3CCOCC3)s2)ccn1 [(IK), 2-Ethoxymethyl-N-[4-(2-furyl)-5-(tetrahydropyran-4-carbonyl)thiazol-2-yl]pyridine-4-carboxamide]	92	24	
CC(C)OCc1cc(C(=O)Nc2nc(-c3ccco3)c(C(=O)C3CCOCC3)s2)ccn1 [(IL), N-[4-(2-Furyl)-5-(tetrahydropyran-4-carbonyl)thiazol-2-yl]-2-isopropoxymethylpyridine-4-carboxamide]	85	20	
O=C(Nc1nc(-c2ccco2)c(C(=O)C2CCOCC2)s1)c1cnc2occc2c1 [(IM), N-[4-(2-Furyl)-5-(tetrahydropyran-4-carbonyl)thiazol-2-yl]furo[2,3-b]pyridine-5-carboxamide]	98	47	
O=C(Cc1ccccn1)Nc1nc(-c2ccco2)c(C(=O)C2CCOCC2)s1 [(IN), N-[4-(2-Furyl)-5-(tetrahydropyran-4-carbonyl)thiazol-2-yl]-2-(pyridin-2-yl)acetamide]	93	21	
Cc1ccc(C(=O)Nc2nc(-c3ccco3)c(C(=O)C3CCOCC3)s2)cn1 [Compound (IC)]			inhibition at 0.1 µM [2]: 29%; duration of anti-parkinsonian activity of L-DOPA ([3]; 1 mg/kg compound co-administered orally with L-DOPA 2.5, 5.0, 7.5 and 10.0 mg/kg): prolonged the anti-parkinsonian activity of L-DOPA; maximum effects of L-DOPA (minimum motor disability score) ([3]; 1 mg/kg compound co-administered orally with L-DOPA 2.5, 5.0, 7.5 and 10.0 mg/kg, versus L-DOPA alone): enhanced maximum effects of L-DOPA alone; action expression time (on-time) ([3]; 1 mg/kg compound plus 10 mg/kg L-DOPA orally, compared to 10 mg/kg L-DOPA alone): increased; duration (on-time) of anti-parkinsonian activities of L-DOPA [4]: about 150 min; minimum disability score [4]: 3.83±0.17

Further lines, with some results ahead:

inhibition at 0.1 µM [1] [%]	inhibition at 0.1 µM [2, 5] [%]	Compound	other results
97	56	COc1ccc(C(=O)Nc2nc(-c3ccco3)c(C(=O)C3CCOCC3)s2)cn1 [(IO), N-[4-(2-Furyl)-5-(tetrahydropyran-4-carbonyl)thiazol-2-yl]-6-methoxypyridine-3-carboxamide]	
98	18	O=C(Nc1nc(-c2ccco2)c(C(=O)C2CCOCC2)s1)c1cnc2ccccc2c1 [(IP), N-[4-(2-Furyl)-5-(tetrahydropyran-4-carbonyl)thiazol-2-yl]quinoline-3-carboxamide]	
100	18	Cc1cc(C(=O)Nc2nc(-c3ccco3)c(C(=O)C3CCOCC3)s2)cnc1C [(IQ), N-[4-(2-Furyl)-5-(tetrahydropyran-4-carbonyl)thiazol-2-yl]-5,6-dimethylpyridine-3-carboxamide]	
107	30	CCc1cncc(C(=O)Nc2nc(-c3ccco3)c(C(=O)C3CCOCC3)s2)c1 [(IR), 5-Ethyl-N-[4-(2-furyl)-5-(tetrahydropyran-4-carbonyl)thiazol-2-yl]pyridine-3-carboxamide]	
90	10	O=C(Nc1nc(-c2ccco2)c(C(=O)C2CCOCC2)s1)c1cnc2c(c1)COCC2 [(IS), N-[4-(2-Furyl)-5-(tetrahydropyran-4-carbonyl)thiazol-2-yl]-7,8-dihydro-5H-pyrano[4,3-b]pyridine-3-carboxamide]	
91	37	O=C(Nc1nc(-c2ccco2)c(C(=O)C2CCOCC2)s1)c1cnc2c(c1)CCC2 [(IT), N-[4-(2-Furyl)-5-(tetrahydropyran-4-carbonyl)thiazol-2-yl]-6,7-dihydro-5H-cyclopenta[b]pyridine-3-carboxamide]	
110	36	O=C(Nc1nc(-c2ccco2)c(C(=O)C2CCOCC2)s1)c1cc2ccccc2[nH]1 [(IU), N-[4-(2-Furyl)-5-(tetrahydropyran-4-carbonyl)thiazol-2-yl]-1H-indole-2-carboxamide]	
98	23	CCc1ccc(C(=O)Nc2nc(-c3ccco3)c(C(=O)C3CCOCC3)s2)cn1 [(IV), 6-Ethyl-N-[4-(2-furyl)-5-(tetrahydropyran-4-carbonyl)thiazol-2-yl]pyridine-3-carboxamide]	
98	23	CCCc1ccc(C(=O)Nc2nc(-c3ccco3)c(C(=O)C3CCOCC3)s2)cn1 [(IW), N-[4-(2-Furyl)-5-(tetrahydropyran-4-carbonyl)thiazol-2-yl]-6-propylpyridine-3-carboxamide]	
101	18	O=C(Nc1nc(-c2ccco2)c(C(=O)C2CCOCC2)s1)c1cnc2c(c1)CSCC2 [(IX), N-[4-(2-Furyl)-5-(tetrahydropyran-4-carbonyl)thiazol-2-yl]-7,8-dihydro-5H-thiopyrano[4,3-b]pyridine-3-carboxamide]	
97	8	CC(=O)c1cc(C(=O)Nc2nc(-c3ccco3)c(C(=O)C3CCOCC3)s2)cnc1C [(IY), 5-Acetyl-N-[4-(2-furyl)-5-(tetrahydropyran-4-carbonyl)thiazol-2-yl]-6-methylpyridine-3-carboxamide]	
102	21	CCc1cncc(C(=O)Nc2nc(-c3ccoc3)c(C(=O)C3CCOCC3)s2)c1 [(IZ), 5-Ethyl-N-[4-(3-furyl)-5-(tetrahydropyran-4-carbonyl)thiazol-2-yl]pyridine-3-carboxamide]	

— patent US10407440B2, “Therapeutic agent for motor disorders” (KYOWA HAKKO KIRIN CO., LTD., priority 2009, dated 2019)
